≈ marks a conversion by molar mass, not a printed value. Where a name gives a salt, the structure may show the parent alone. Read-outs that look alike come from different tables or passages of the source.
Tests used:
[1] = tested on: Pseudomonas aeruginosa 5D58-1; test: minimum inhibitory concentration (MIC); format: cell-based; conditions: 5D581, Tables 2A, 2B
Description: (§1) The minimum inhibitory concentration (MIC) of the compounds obtained in the above Examples were measured according to the standard method of Japan Society of Chemotherapy.

[2] = tested on: Enterobacter cloacae IV25; test: minimum inhibitory concentration (MIC); format: cell-based
Description: as §1

[3] = tested on: Citrobacter freundii 1R526; test: minimum inhibitory concentration (MIC); format: cell-based
Description: as §1

[4] = tested on: Enterobacter cloacae 908RN; test: minimum inhibitory concentration (MIC); format: cell-based
Description: as §1

[5] = tested on: Citrobacter freundii 1U589; test: minimum inhibitory concentration (MIC); format: cell-based
Description: as §1

[6] = tested on: Citrobacter freundii GN7391; test: minimum inhibitory concentration (MIC); format: cell-based
Description: as §1

[7] = tested on: Citrobacter freundii 5D60-1; test: minimum inhibitory concentration (MIC); format: cell-based
Description: as §1

[8] = tested on: Pseudomonas aeruginosa 4au542; test: minimum inhibitory concentration (MIC); format: cell-based; conditions: Tables 2A, 2B
Description: as §1

[9] = tested on: Enterobacter cloacae GN7471; test: minimum inhibitory concentration (MIC); format: cell-based
Description: as §1

[10] = tested on: Citrobacter freundii 1R523; test: minimum inhibitory concentration (MIC); format: cell-based
Description: as §1

Escherichia coli GN5482 = test: minimum inhibitory concentration (MIC); format: cell-based; conditions: Tables 2A, 2B
Description: as §1

Proteus vulgris GN7919 = test: minimum inhibitory concentration (MIC); format: cell-based
Description: as §1

[11] = tested on: Klebsiella pneumoniae 4at521; test: minimum inhibitory concentration (MIC); format: cell-based; conditions: Tables 2A, 2B
Description: as §1

[12] = tested on: Pseudomonas cepacia OF189; test: minimum inhibitory concentration (MIC); format: cell-based; conditions: Burkholderia cepacia, Tables 2A, 2B
Description: as §1

[13] = tested on: Pseudomonas aeruginosa GN10362; test: minimum inhibitory concentration (MIC); format: cell-based; conditions: Tables 2A, 2B
Description: as §1

[14] = tested on: Citrobacter freundii 1R527; test: minimum inhibitory concentration (MIC); format: cell-based
Description: as §1

[15] = tested on: Citrobacter freundii 1R524; test: minimum inhibitory concentration (MIC); format: cell-based
Description: as §1

[16] = tested on: Serratia marcescens GN10857; test: minimum inhibitory concentration (MIC); format: cell-based; conditions: Tables 2A, 2B
Description: as §1

[17] = tested on: Citrobacter freundii 1U592; test: minimum inhibitory concentration (MIC); format: cell-based
Description: as §1

[18] = tested on: Citrobacter freundii GM7391; test: minimum inhibitory concentration (MIC); format: cell-based
Description: as §1

Escherichia coli ML4704 = test: minimum inhibitory concentration (MIC); format: cell-based
Description: as §1

[19] = tested on: Pseudomonas maltophilia OF247; test: minimum inhibitory concentration (MIC); format: cell-based; conditions: Stenotrophomonas maltophilia, Tables 2A, 2B
Description: as §1

[20] = tested on: Staphylococcus aureus Smith; test: minimum inhibitory concentration (MIC), standard method of Japan Society of Chemotherapy; format: cell-based; conditions: Tables 2A, 2B
Description: as §1

[21] = among existing cephalosporins; known; cited from earlier work
in vivo = test: in vivo; design: species or system cynomolgus monkeys; conditions: cynomolgus monkey, 20 mg/kg
Description: 20 mg/kg of compound obtained in the above Example 18 was administered parenterally to cynomolgus monkeys and the half-life in blood was measured.
The concentration of the compound was measured according to HPLC method. Novapack C18 or Microbondapack C18 (both trade name, produced by Waters Co.) was used for analysis. Further, cefpiramide was used as a control drug.

[22] = tested on: Enterobacter cloacae IY247; test: minimum inhibitory concentration (MIC); format: cell-based
Description: as §1

[23] = tested on: Staphylococcus aureus IAA498; test: minimum inhibitory concentration (MIC); format: cell-based; conditions: Tables 2A, 2B
Description: as §1

[24] = tested on: Enterobacter cloacae 5D83-2; test: minimum inhibitory concentration (MIC); format: cell-based; conditions: 5D832
Description: as §1

[25] = tested on: Enterobacter cloacae 5D52-2; test: minimum inhibitory concentration (MIC); format: cell-based; conditions: 5D522
Description: as §1

[26] = Escherichia coli ML4704, Tables 2A, 2B, read-out: MIC

Row | half-life (in vivo) | Compound | MIC [1] | MIC ([6]; Citrobacter freundii, GN7391) | MIC [8] | MIC ([9]; Enterobacter cloacae, GN7471) | MIC (Escherichia coli GN5482) | MIC (Proteus vulgris GN7919) | MIC [11] | MIC [12] | MIC [13] | MIC [16] | MIC (Escherichia coli ML4704; [26]) | MIC [19] | MIC [20] | MIC [23] | further results
1 | – | CC(C)(O/N=C(\C(=O)N[C@@H]1C(=O)N2C(C(=O)[O-])=C(C[n+]3ccccc3)CS[C@H]12)c1csc(N)n1)C(=O)O [CAZ, ceftazidime, reference compound] | 1.56 µg/mL (≈ 2.85 µM) | > 100 µg/mL | 3.13 µg/mL (≈ 5.73 µM) | 3.13 µg/mL (≈ 5.73 µM) | 1.56 µg/mL (≈ 2.85 µM) | 1.56 µg/mL (≈ 2.85 µM) | 0.1 µg/mL (≈ 0.183 µM) | 6.25 µg/mL (≈ 11.4 µM) | 1.56 µg/mL (≈ 2.85 µM) | 3.13 µg/mL (≈ 5.73 µM) | 0.05 µg/mL (≈ 0.0915 µM) | 3.13 µg/mL (≈ 5.73 µM) | 6.25 µg/mL (≈ 11.4 µM) | – | MIC [2]: 50 µg/mL (≈ 91.5 µM); MIC [3]: 25 µg/mL (≈ 45.7 µM); MIC ([4]; Enterobacter cloacae 908RN, Table 3, clinical isolates resistant to ceftazidime): > 100 µg/mL; MIC ([4]; Enterobacter cloacae 908RN, Tables 2A, 2B): 100 µg/mL (≈ 183 µM); MIC [5]: 100 µg/mL (≈ 183 µM); MIC ([7]; 5D601): > 100 µg/mL; MIC [10]: 25 µg/mL (≈ 45.7 µM); MIC [14]: 25 µg/mL (≈ 45.7 µM); MIC [15]: 25 µg/mL (≈ 45.7 µM); MIC [17]: 100 µg/mL (≈ 183 µM); MIC [18]: > 100 µg/mL
2 | 2.5 h | Cc1cc(O)c(C(=O)N[C@@H](C(=O)N[C@@H]2C(=O)N3C(C(=O)O)=C(CSc4nnnn4C)CS[C@H]23)c2ccc(O)cc2)cn1 [Cefpiramide, cefpiramide, reference compound] | – | – | – | – | – | – | – | – | – | – | – | – | – | – | half-life in blood [21]: long half-life in blood
3 | 2.6 h | Cc1cc(SCC2=C(C(=O)O)N3C(=O)C(NC(=O)C(=NOC(C)(C)C(=O)NNC(=O)c4ccc(O)c(O)c4)c4csc(N)n4)C3SC2)n2nc(CO)nc2n1 (stereo not shown) [Example 18, 7-{2-[2-amino-1,3-thiazol-4-yl]-2-[1-(3-(3,4-dihydroxybenzoyl)carbazoyl)-1-methylethoxyimino]acetamide}-3-[(2-hydroxymethyl-5-methyl-s-triazolo[1,5-a]pyrimidin-7-yl)thiomethyl]-3-cephem-4-carboxylic acid.sodium salt] | 0.05 µg/mL | – | 0.2 µg/mL | – | 0.025 µg/mL | – | 0.012 µg/mL | 0.025 µg/mL | 0.05 µg/mL | 0.78 µg/mL | 0.012 µg/mL | 0.39 µg/mL | 1.56 µg/mL | 6.25 µg/mL | MIC ([2]; read-out: MIC): 1.56 µg/mL; MIC ([3]; read-out: MIC): 0.39 µg/mL; MIC [22]: 6.25 µg/mL; MIC ([4]; Enterobacter cloacae 908RN, Table 3, clinical isolates resistant to ceftazidime, read-out: MIC): 12.5 µg/mL; MIC ([4]; Enterobacter cloacae 908RN, Tables 2A, 2B, read-out: MIC): 6.25 µg/mL; MIC ([5]; read-out: MIC): 1.56 µg/mL; MIC ([6]; Citrobacter freundii GN7391, Tables 2A, 2B, read-out: MIC): 12.5 µg/mL; MIC ([7]; 5D601, read-out: MIC): 1.56 µg/mL; MIC ([9]; Enterobacter cloacae GN7471, Tables 2A, 2B, read-out: MIC): 6.25 µg/mL; MIC ([10]; read-out: MIC): 0.78 µg/mL; MIC (Proteus vulgris GN7919; Proteus vulgris GN7919, Tables 2A, 2B, read-out: MIC): 1.56 µg/mL; MIC [24]: 0.78 µg/mL; MIC ([14]; read-out: MIC): 0.2 µg/mL; MIC ([15]; read-out: MIC): 0.39 µg/mL; MIC ([17]; read-out: MIC): 25 µg/mL; MIC ([18]; read-out: MIC): 6.25 µg/mL; MIC [25]: 0.39 µg/mL
4 | – | Cc1nc2nc(CO)cc(SCC3=C(C(=O)[O-])N4C(=O)C(NC(=O)C(=NOC(C)(C)C(=O)NNC(=O)c5ccc(O)c(O)c5)c5csc(N)n5)[C@H]4SC3)n2n1.[Na+] (stereo partly shown) [Example 37, sodium 7-{2-[2-amino-1,3-thiazol-4-yl]-2-[1-(3-(3,4-dihydroxybenzoyl)carbazoyl)-1-methylethoxyimino]acetamido}-3-[(5-hydroxymethyl-2-methyl-s-triazolo[1,5-a]pyrimidin-7-yl)thiomethyl]-3-cephem-4-carboxylate] | 0.1 µg/mL | 6.25 µg/mL | 0.2 µg/mL | 1.56 µg/mL | 0.05 µg/mL | 1.56 µg/mL | 0.012 µg/mL | 0.025 µg/mL | 0.1 µg/mL | 0.39 µg/mL | – | 0.39 µg/mL | 3.13 µg/mL | 6.25 µg/mL | MIC [4]: 1.56 µg/mL; MIC (Escherichia coli ML4704; Escherichia coli, ML4704): 0.1 µg/mL

— patent US4987129A, “Cephalosporin derivatives” (priority 1987, dated 1991)
